# In patent publication US20190169574A1, “IN VITRO PRODUCTION OF PANCREATIC BETA CELLS” (NESTEC S.A., priority 2016, published 2019):
# Experiments:
# PE cells = test: Dose response test: toxicity and morphology of PE cell aggregates in culture with increasing doses of Isx9; type: cell-based; details: FIG. 1
# Experimental: FIG. 1: Morphological analysis of PE cells in culture with increasing doses of Isx9. PE cells were cultured in suspension without Isx9 (DMSO control carrier), and with increasing concentrations of Isx9 (6 μM, 12 μM, 24 μM, 48 μM and 60 μM) for 4 days and 8 days. 5× and 10× magnification pictures have been collected for each condition and time point.
# Dose response tests have been performed to determine toxicity of Isx9 and the optimal concentration of Isx9 to be tested for beta cell differentiation in vitro. High concentrations of Isx9 (from 24 μM up to 60 μM) appears to be toxic as the aggregates of PE cells become cystic after 8 days in culture as shown in FIG. 1. In contrast, the morphology of the aggregates of PE cells is unchanged as compared to the control DMSO condition when using 6 and 12 μM of Isx9. In order to maintain physiological condition, a concentration of 6 μM of Isx9 has been used for the entire protocol. Exposure of maturing beta cells to Isx9 for 13 days is increasing the glucose-stimulated insulin secretion of the cells as compared to the control DMSO condition (FIG. 2). This effect is correlated with the duration of exposure to Isx9 at 6 uM. […] Isx9 induces an increase in RNA expression levels of endocrine markers such as Ngn3, but also beta cell markers as NeuroD1 and Nkx2.2.
# MAFA = MAFA detection by immunohistochemistry; type: cell-based; details: as early as at D9 of differentiation; FIG. 7
# From the text: (§1) Moreover, culturing the PE cells in suspension or in transwell culture systems in presence of Isx9 is showing the same effect of improved glucose-dependent insulin response as shown in FIG. 5 and FIG. 6. […] Both markers are critical for mediating the response of insulin secretion mediated by glucose. The expression of MAFA can also be unprecedently detected by immunohistochemistry as early as at D9 of differentiation as shown in FIG. 7.
# maturing beta cells = test: Analysis of the cell composition of the maturing beta cells (insulin positive cells); type: cell-based; details: Isx9 added
# From the text: FIG. 7: FACS sorting of cells
# as §1
# human cadaveric islets = details: islets that produced low levels of insulin due to prolonged culture; cited from earlier work
# [1] = tested on: iPSC-derived maturing beta cells; test: In vitro glucose-stimulated insulin secretion test; type: cell-based
# Experimental: FIG. 2: Exposure of PE cells to Isx9 induces glucose response properties to the cells. A: Scheme of the protocol setup. Maturing beta cells have been exposed to DMSO or Isx9 (6 μM) for 13 days, 7 days or 2 days during the maturation step. B: In vitro glucose-stimulated Insulin secretion test have been performed to measure secretion of Insulin in each condition (No Isx9, 13 days Isx9, 7 days Isx9 or 2 days Isx9) induced by low glucose concentration (2 mM) or high glucose concentration (20 mM). The stimulation index of Insulin secretion is determined between the 2 concentrations of glucose on the y axis. FIG. 4: Exposure of PE cells to Isx9 in two-steps increases glucose response properties to the cells. A: Scheme of the protocol setup. In a first step, PE cells have been exposed to DMSO (condition 1) or Isx9 (6 μM) for 2-6 days (condition 2). In a second step, maturing beta cells have been exposed to DMSO (condition 3) or Isx9 (6 uM) for 10 days (condition 4). B: In vitro glucose-stimulated Insulin secretion test have been performed to measure secretion of Insulin in each condition, induced by low glucose concentration (2 mM) or high glucose concentration (20 mM). The stimulation index of Insulin secretion is determined between the 2 concentrations of glucose on they axis. In order from left to right: NKX6.1, Pdx1, NGN3, NKX2-2, NeuroD1. Frozen PE cells were thawed and cultured for 1 day in I medium containing 10 U/mL DNase I in ULA 6WP flat-bottomed plates. The PE cells were subsequently transferred to S3 BASE medium (MCDB131, 8 mM D-glucose, 1.23 g/L NaHCO3, 2% FFA BSA, 1:200 ITX-X, 2 mM glutamax, 100×PS and 0.25 mM vitamin C) containing 50 ng/mL KGF, 0.25 μM Sant1, 100 nM RA and 10 μM Y and cultured for a further 2 days. The resulting cells were then cultured for 4 days using an air-liquid interface culture protocol in Transwell plates. […]
# adult neural stem cell = details: in vitro and in vivo; cited from earlier work
# [2] = tested on: PE cells / in vitro maturing beta cells; test: RNA / gene expression levels of endocrine progenitor and beta cell markers; type: cell-based
# Experimental: FIG. 3: Early exposure of PE cells to Isx9 increases gene expression levels of endocrine progenitors as well as mature beta cell markers. A: Scheme of the protocol setup. B: Early exposure of PE cells to Isx9 (6 μM) for 2-6 days (condition 3) increases RNA expression levels of Ngn3, Nkx2.2 and NeuroD1 at D13 of differentiation, as compared to DMSO exposure (condition 1). The increase of Nkx2.2 RNA expression levels is maintained at D23 of differentiation when in vitro maturing beta cells are exposed to Isx9 (6 uM) in a two-step protocol (condition 4). Controls are represented by primary human islets. First bar of each pair is 2 mM and second bar is at 20 mM. Frozen PE cells were thawed and cultured for 1 day in I medium containing 10 U/mL DNase I in ULA 6WP flat-bottomed plates. The PE cells were subsequently transferred to S3 BASE medium (MCDB131, 8 mM D-glucose, 1.23 g/L NaHCO3, 2% FFA BSA, 1:200 ITX-X, 2 mM glutamax, 100×PS and 0.25 mM vitamin C) containing 50 ng/mL KGF, 0.25 μM Sant1, 100 nM RA and 10 μM Y and cultured for a further 2 days. The resulting cells were then cultured for 4 days using an air-liquid interface culture protocol in Transwell plates. The culture was carried out in S5 BASE medium (MCDB131, 20 mM D-glucose, 1.754 g/L NaHCO3, 2% FFA BSA, 1:200 ITX-X, 2 mM glutamax, 100×PS, 0.25 mM vitamin C and […] heparin) containing 100 nM RA, 1 μM XXI, 0.25 μM Sant1, 10 μM Alk5i II, 1 μM T3, 20 ng/mL beta-cellulin, 10 μM Y and 6 μM isoxazole 9 (ISX-9). Subsequently, the medium was exchanged for S5 BASE medium containing 25 nM RA, 1 μM XXI, 10 μM Alk5i II, 1 μM T3, 20 ng/mL beta-cellulin and 10 μM Y and the cells were cultured for a further 3 days. ISX-9 was not present in this medium. Finally, the medium was exchanged for S6 BASE medium (CMRL 1066, 10% FBS and 100×PS) containing 10 μM Alk5i II, 1 μM T3 and 10 μM Y and the cells were cultured for a further 15 days. ISX-9 was added to this medium at a concentration of 6 μM for the final 14 days of culture (i.e. the first day of culture in this step was carried out in the absence of ISX-9).
# [3] = Isx9 6 μM early exposure of PE cells for 2-6 days vs DMSO, D13 of differentiation, FIG. 3
smiles,measurement,setting,value
"O=C(NC1CC1)c1cc(-c2cccs2)on1 [Isx9, Isoxazole 9]",morphology of the aggregates of PE cells as compared to the control DMSO condition,PE cells; 6 and 12 μM of Isx9,unchanged
same,toxicity (aggregates of PE cells become cystic),"PE cells; high concentrations, from 24 μM up to 60 μM, after 8 days in culture",toxic
same,expression of MAFA by immunohistochemistry,MAFA,detected
same,number or quantity of insulin positive cells as compared to DMSO,maturing beta cells,does not receal an increase
same,expression and secretion of insulin,human cadaveric islets,increase
same,effect of Isx9 on glucose response when added in a first step at the PE cell stage (two-step protocol),"[1]; Isx9 6 μM, first step 2-6 days at PE stage, second step 10 days, FIG. 3 and FIG. 4",reinforced
same,glucose-dependent insulin response,"[1]; PE cells cultured in suspension or in transwell culture systems in presence of Isx9, FIG. 5 and FIG. 6",improved
same,glucose-stimulated insulin secretion of the cells as compared to the control DMSO condition,"[1]; maturing beta cells exposed to Isx9 6 μM for 13 days, 2 mM vs 20 mM glucose, effect correlated with duration of exposure, FIG. 2",increasing
same,adult neural stem cell differentiation,adult neural stem cell,induce
same,RNA expression level of NeuroD1,[2]; [3],increases
same,RNA expression level of Ngn3,[2]; [3],increases
same,RNA expression level of Nkx2.2,[2]; [3],increases
same,increase of Nkx2.2 RNA expression levels at D23,"[2]; Isx9 6 uM two-step protocol (condition 4), D23 of differentiation, FIG. 3",maintained
same,MAFA gene expression level,[2]; in presence of Isx9,increase
same,PCSK1 gene expression level,[2]; in presence of Isx9,increase
